Counter-ions that a name gives are not always drawn.
target: T1, guinea-pig B2 receptor (Cavia porcellus, UniProt O70526); assay: [3H]-bradykinin binding to guinea-pig ileum membranes; conditions: test compound at 10^-6 M, [3H]-bradykinin 120 pM, 90 min at 20° C., read-out: ACTIVITY % (percentage inhibition of the binding of [3H]-bradykinin)
T1 construct: Ileum segments are isolated from male guinea-pigs of the Dunkin-Hartley strain; tissue Iffa Credo, l'Arbresle, France (supplier of the animals); host or cells: ileum membranes of male Dunkin-Hartley guinea pigs
T1 sequence (O70526 1-372): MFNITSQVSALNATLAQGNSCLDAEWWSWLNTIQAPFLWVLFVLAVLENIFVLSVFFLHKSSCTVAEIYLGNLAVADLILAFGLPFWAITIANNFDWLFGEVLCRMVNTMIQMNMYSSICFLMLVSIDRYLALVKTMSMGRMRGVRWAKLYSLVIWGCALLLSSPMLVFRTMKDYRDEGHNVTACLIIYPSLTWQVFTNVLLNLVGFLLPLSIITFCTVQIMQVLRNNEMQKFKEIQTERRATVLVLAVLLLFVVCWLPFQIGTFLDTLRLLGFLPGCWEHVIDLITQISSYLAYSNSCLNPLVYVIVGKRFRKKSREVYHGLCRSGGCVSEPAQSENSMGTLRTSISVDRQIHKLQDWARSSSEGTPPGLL
Description: The following pharmacological test is used: Ileum segments are isolated from male guinea-pigs of the Dunkin-Hartley strain (Iffa Credo, l'Arbresle, France) and ground in the following TES buffer: TES 25 mM, 1,10-phenanthroline 1 mM (pH 6.8), bacitracin 140 μg/ml, BSA 1 g/l. The membranes are then isolated by centrifugation (18,000 rpm; 20 min; 4° C.). The binding studies are carried out in the TES buffer using [^3 H]-bradykinin (120 pM) and 50 μg of membrane protein per test (final volume 500 μl) with an equilibrium time of 90 min at 20° C. […] The results obtained from these tests (shown as "activity") are collated in Table I below with reference to the Examples given in the description.

| Compound | inhibition at 1 µM [%] |
| --- | --- |
| Cc1ccc2cccc(OCc3c(Cl)ccc(S(=O)(=O)N4CCC[C@H]4C(=O)N4CCNCC4)c3Cl)c2n1 [Example 2, 1-[[3-[(2-Methylquinolin-8-yl)oxymethyl]-2,4-dichlorophenyl]sulfonyl]-2-(S)-[(piperazin-1-yl)carbonyl]pyrrolidine] | 100 |
| Cc1ccc2cccc(OCc3c(Cl)ccc(S(=O)(=O)N4CCC[C@H]4C(=O)NCCN)c3Cl)c2n1 [Example 3, 1-[[3-[(2-Methylquinolin-8-yl)oxymethyl]-2,4-dichlorophenyl]sulfonyl]-N-(2-aminoethyl)-2-(S)-pyrrolidinecarboxamide] | 100 |
| Cc1cc(C)c2cccc(OCc3c(Cl)ccc(S(=O)(=O)N4CCC[C@H]4C(=O)N4CCNCC4)c3Cl)c2n1 [Example 5, 1-[[3-[(2,4-Dimethylquinolin-8-yl)oxymethyl]-2,4-dichlorophenyl]sulfonyl]-2-(S)-[(piperazin-1-yl)carbonyl]pyrrolidine bistrifluoroacetate] | 100 |
| Cc1ccc2cccc(OCc3c(Cl)ccc(S(=O)(=O)N4CCC[C@H]4C(=O)NC4CCNCC4)c3Cl)c2n1 [Example 8, 1-[[3-[(2-Methylquinolin-8-yl)oxymethyl]-2,4-dichlorophenyl]sulfonyl]-N-(piperidin-4-yl)-2-(S)-pyrrolidinecarboxamide dihydrochloride] | 100 |
| Cc1ccc2cccc(OCc3c(Cl)ccc(S(=O)(=O)N4CCC[C@H]4C(=O)NCCCN)c3Cl)c2n1 [Example 9, 1-[[3-[(2-Methylquinolin-8-yl)oxymethyl]-2,4-dichlorophenyl]sulfonyl]-N-(3-aminopropyl)-2-(S)-pyrrolidinecarboxamide dihydrochloride] | 100 |
| Cc1ccc2cccc(OCc3c(Cl)ccc(S(=O)(=O)N4CCC[C@H]4C(=O)NCC4CCNCC4)c3Cl)c2n1 [Example 10, 1-[[3-[(2-Methylquinolin-8-yl)oxymethyl]-2,4-dichlorophenyl]sulfonyl]-N-[(piperidin-4-yl)methyl]-2-(S)-pyrrolidinecarboxamide dihydrochloride] | 100 |
| Cc1cc(C)c2cccc(OCc3c(Cl)ccc(S(=O)(=O)N4CCC[C@H]4C(=O)N4CCN(C(=N)N)CC4)c3Cl)c2n1 [Example 14, 1-[[3-[(2,4-Dimethylquinolin-8-yl)oxymethyl]-2,4-dichlorophenyl]sulfonyl]-2-(S)-[[4-(aminoiminomethyl)piperazin-1-yl]carbonyl]pyrrolidine bistrifluoroacetate] | 98 |
| Cc1cc(C)c2cccc(OCc3c(Cl)ccc(S(=O)(=O)N4C[C@H](O)C[C@H]4C(=O)N4CCN(C(=N)N)CC4)c3Cl)c2n1 [Example 15, 1-[[3-[(2,4-Dimethylquinolin-8-yl)oxymethyl]-2,4-dichlorophenyl]sulfonyl]-2-(S)-[[4-(aminoiminomethyl)piperazin-1-yl]carbonyl]-4-(R)-hydroxypyrrolidine bistrifluoroacetate] | 100 |
| Cc1ccc2cccc(OCc3c(Cl)ccc(S(=O)(=O)N4CCC[C@H]4C(=O)NCCNC(=N)N)c3Cl)c2n1 [Example 16, 1-[[3-[(2-Methylquinolin-8-yl)oxymethyl]-2,4-dichlorophenyl]sulfonyl]-N-[2-[(aminoiminomethyl)amino]ethyl]-2-(S)-pyrrolidinecarboxamide bistrifluoroacetate] | 100 |
| Cc1cc(C)c2cccc(OCc3c(Cl)ccc(S(=O)(=O)N4CCC[C@H]4C(=O)NCCNC(=N)N)c3Cl)c2n1 [Example 19, 1-[[3-[(2,4-Dimethylquinolin-8yl)oxymethyl]-2,4-dichlorophenyl]sulfonyl]-N-[2-[(aminoiminomethyl)amino]ethyl]-2-(S)-pyrrolidinecarboxamide dihydrochloride] | 97 |
| Cc1cc(C)c2cccc(OCc3c(Cl)ccc(S(=O)(=O)N4CCC[C@H]4C(=O)NCCCNC(=N)N)c3Cl)c2n1 [Example 20, 1-[[3-[(2,4-Dimethylquinolin-8-yl)oxymethyl]-2,4-dichlorophenyl]sulfonyl]-N-[3-[(aminoiminomethyl)amino]propyl]-2-(S)-pyrrolidinecarboxamide dihydrochloride] | 98 |
| Cc1ccc2cccc(OCc3c(Cl)ccc(S(=O)(=O)N4CCC[C@H]4C(=O)NCC4CCN(C(=N)N)CC4)c3Cl)c2n1 [Example 22, 1-[[3-[(2-Methylquinolin-8-yl)oxymethyl]-2,4-dichlorophenyl]sulfonyl]-N-[[1-(aminoiminomethyl)piperidin-4-yl]methyl]-2-(S)-pyrrolidinecarboxamide dihydrochloride] | 98 |
| Cc1ccc2cccc(OCc3c(Cl)ccc(S(=O)(=O)N4CCC[C@H]4C(=O)NC4CCN(C(=N)N)CC4)c3Cl)c2n1 [Example 23, 1-[[3-[(2-Methylquinolin-8-yl)oxymethyl]-2,4-dichlorophenyl]sulfonyl]-N-[1-(aminoiminomethyl)piperidin-4-yl]-2-(S)-pyrrolidinecarboxamide dihydrochloride] | 100 |
| Cc1ccc2cccc(OCc3c(Cl)ccc(S(=O)(=O)N4CCC[C@H]4C(=O)N4CCN(C(=N)N)CC4)c3Cl)c2n1 [Example 24, 1-[[3-[(2-Methylquinolin-8-yl)oxymethyl]-2,4-dichlorophenyl]sulfonyl]-2-(S)-[[4-(aminoiminomethyl)piperazin-1-yl]carbonyl]pyrrolidine dihydrochloride] | 98 |
| Cc1ccc2cccc(OCc3c(Cl)ccc(S(=O)(=O)N4CCC[C@H]4C(=O)N4CC(C)N(C(=N)N)C(C)C4)c3Cl)c2n1 (stereo partly drawn) [Example 25, 1-[[3-[(2-Methylquinolin-8yl)oxymethyl]-2,4-dichlorophenyl]sulfonyl]-2-(S)-[[4-(aminoiminomethyl)-3,5-dimethylpiperazin-1-yl]carbonyl]pyrrolidine dihydrochloride] | 100 |
| Cc1ccc2cccc(OCc3c(Cl)ccc(S(=O)(=O)N4CCC[C@H]4C(=O)N4CCN(C(=NC(C)C)NC(C)C)CC4)c3Cl)c2n1 [Example 27, 1-[[3-[(2-Methylquinolin-8-yl)oxymethyl]-2,4-dichlorophenyl]sulfonyl]-2-(S)-[[4-[(1-methylethylamino)(1-methylethylimino)methyl]piperazin-1-yl]-carbonyl]pyrrolidine dihydrochloride] | 100 |
